Laboratory results: US10292388B2, “Malononitrile compounds for controlling animal pests” (BASF SE, priority 2012, dated 2019)

What was measured:
[1] = system: boll weevil (Anthonomus grandis); assay: Boll weevil microtiter plate diet test; assay type: in vivo; conditions: 120 h, sprayed onto insect diet with eggs, egg and larval mortality after 5 days, read-out: mortality in comparison with untreated controls
Experimental: B.9 Boll Weevil (Anthonomus grandis)
For evaluating control of boll weevil (Anthonomus grandis) the test unit consisted of 24-well-microtiter plates containing an insect diet and 20-30 A. grandis eggs. The compounds were formulated using a solution containing 75% v/v water and 25% v/v DMSO. Different concentrations of formulated compounds were sprayed onto the insect diet at 20 μl, using a custom built micro atomizer, at two replications. After application, microtiter plates were incubated at about 23±1° C. and about 50±5% relative humidity for 5 days. Egg and larval mortality was then visually assessed.

[2] = system: yellow fever mosquito (Aedes aegypti); assay: whole plant or invertebrate; assay type: in vivo; conditions: 48 h, freshly hatched larvae in tap water, larval mortality after 2 days, read-out: mortality in comparison with untreated controls
Experimental: B.12 Yellow Fever Mosquito (Aedes aegypti)
For evaluating control of yellow fever mosquito (Aedes aegypti) the test unit consisted of 96-well-microtiter plates containing 200 μl of tap water per well and 5-15 freshly hatched A. aegypti larvae. The compounds or mixtures were formulated using a solution containing 75% water and 25% DMSO. Different concentrations of formulated compounds or mixtures were sprayed onto the insect diet at 2.5 μl, using a custom built micro atomizer, at two replications. After application, microtiter plates were incubated at 28±1° C., 80±5% relative humidity for 2 days. Larval mortality was then visually assessed.

Question: Which mortality at 2500 ppm [1] does the source give for `C#Cc1ccc(CC(C#N)(C#N)c2ccc(C#N)cc2)cc1` [II-77, 2-(4-cyanophenyl)-2-[(4-ethynylphenyl)methyl]-propanedinitrile] here?
Answer: Its mortality at 2500 ppm is no less than 75%.

Question: What about the mortality at 2500 ppm [2] of the same molecule?
Answer: The mortality at 2500 ppm was no less than 75%.
